Results taken from the NIST ThermoML archive (doi:10.1016/j.fluid.2008.09.004).
± gives the expanded uncertainty stated by the source.

Assays:
[1] = molar heat capacity at constant pressure; xn = mol fraction of the nth substance listed; conditions: 101 kPa, Liquid, Small sample (50 mg) DSC
[2] = excess molar enthalpy (molar enthalpy of mixing); xn = mol fraction of the nth substance listed; conditions: 303.15 K, 101 kPa, Liquid, Calvet calorimetry

## CCn1cc[n+](C)c1.O=S(=O)([O-])C(F)(F)F [1-ethyl-3-methylimidazolium trifluoromethanesulfonate] + CCO
[1]; 293.15 K, x1 = 0.2927
  molar heat capacity at constant pressure: 188.3 ± 2.9 J/K/mol
[1]; 293.15 K, x1 = 0.3819
  molar heat capacity at constant pressure: 209.7 ± 3.2 J/K/mol
[1]; 293.15 K, x1 = 0.4917
  molar heat capacity at constant pressure: 236 ± 3.7 J/K/mol
[1]; 293.15 K, x1 = 0.5983
  molar heat capacity at constant pressure: 261.7 ± 4.1 J/K/mol
[1]; 293.15 K, x1 = 0.6899
  molar heat capacity at constant pressure: 283.9 ± 4.4 J/K/mol
[1]; 293.15 K, x1 = 0.7829
  molar heat capacity at constant pressure: 306.8 ± 4.8 J/K/mol
[1]; 293.15 K, x1 = 0.8784
  molar heat capacity at constant pressure: 330.5 ± 5.1 J/K/mol
[1]; 298.15 K, x1 = 0.0523
  molar heat capacity at constant pressure: 126.8 ± 2 J/K/mol
[1]; 298.15 K, x1 = 0.1
  molar heat capacity at constant pressure: 140.4 ± 2.2 J/K/mol
[1]; 298.15 K, x1 = 0.1959
  molar heat capacity at constant pressure: 165.4 ± 2.6 J/K/mol
[1]; 298.15 K, x1 = 0.2927
  molar heat capacity at constant pressure: 189.5 ± 2.9 J/K/mol
[1]; 298.15 K, x1 = 0.3819
  molar heat capacity at constant pressure: 211 ± 3.3 J/K/mol
[1]; 298.15 K, x1 = 0.4917
  molar heat capacity at constant pressure: 237.4 ± 3.7 J/K/mol
[1]; 298.15 K, x1 = 0.5983
  molar heat capacity at constant pressure: 263.3 ± 4.1 J/K/mol
[1]; 298.15 K, x1 = 0.6899
  molar heat capacity at constant pressure: 285.4 ± 4.4 J/K/mol
[1]; 298.15 K, x1 = 0.7829
  molar heat capacity at constant pressure: 308.5 ± 4.8 J/K/mol
[1]; 298.15 K, x1 = 0.8784
  molar heat capacity at constant pressure: 332.5 ± 5.2 J/K/mol
[1]; 303.15 K, x1 = 0.0523
  molar heat capacity at constant pressure: 128.4 ± 2 J/K/mol
[1]; 303.15 K, x1 = 0.1
  molar heat capacity at constant pressure: 142 ± 2.2 J/K/mol
[1]; 303.15 K, x1 = 0.1959
  molar heat capacity at constant pressure: 166.7 ± 2.6 J/K/mol
[1]; 303.15 K, x1 = 0.2927
  molar heat capacity at constant pressure: 190.7 ± 3 J/K/mol
[1]; 303.15 K, x1 = 0.3819
  molar heat capacity at constant pressure: 212.3 ± 3.3 J/K/mol
[1]; 303.15 K, x1 = 0.4917
  molar heat capacity at constant pressure: 238.8 ± 3.7 J/K/mol
[1]; 303.15 K, x1 = 0.5983
  molar heat capacity at constant pressure: 264.9 ± 4.1 J/K/mol
[1]; 303.15 K, x1 = 0.6899
  molar heat capacity at constant pressure: 286.9 ± 4.4 J/K/mol
[1]; 303.15 K, x1 = 0.7829
  molar heat capacity at constant pressure: 310.3 ± 4.8 J/K/mol
[1]; 303.15 K, x1 = 0.8784
  molar heat capacity at constant pressure: 334.5 ± 5.2 J/K/mol
[1]; 308.15 K, x1 = 0.0523
  molar heat capacity at constant pressure: 130.3 ± 2 J/K/mol
[1]; 308.15 K, x1 = 0.1
  molar heat capacity at constant pressure: 143.8 ± 2.2 J/K/mol
[1]; 308.15 K, x1 = 0.1959
  molar heat capacity at constant pressure: 168.1 ± 2.6 J/K/mol
[1]; 308.15 K, x1 = 0.2927
  molar heat capacity at constant pressure: 192.1 ± 3 J/K/mol
[1]; 308.15 K, x1 = 0.3819
  molar heat capacity at constant pressure: 213.8 ± 3.3 J/K/mol
[1]; 308.15 K, x1 = 0.4917
  molar heat capacity at constant pressure: 240.4 ± 3.7 J/K/mol
[1]; 308.15 K, x1 = 0.5983
  molar heat capacity at constant pressure: 266.5 ± 4.1 J/K/mol
[1]; 308.15 K, x1 = 0.6899
  molar heat capacity at constant pressure: 288.5 ± 4.5 J/K/mol
[1]; 308.15 K, x1 = 0.7829
  molar heat capacity at constant pressure: 312.2 ± 4.8 J/K/mol
[1]; 308.15 K, x1 = 0.8784
  molar heat capacity at constant pressure: 336.6 ± 5.2 J/K/mol
[1]; 313.15 K, x1 = 0.0523
  molar heat capacity at constant pressure: 132.2 ± 2 J/K/mol
[1]; 313.15 K, x1 = 0.1
  molar heat capacity at constant pressure: 145.5 ± 2.3 J/K/mol
[1]; 313.15 K, x1 = 0.1959
  molar heat capacity at constant pressure: 169.5 ± 2.6 J/K/mol
[1]; 313.15 K, x1 = 0.2927
  molar heat capacity at constant pressure: 193.5 ± 3 J/K/mol
[1]; 313.15 K, x1 = 0.3819
  molar heat capacity at constant pressure: 215.2 ± 3.3 J/K/mol
[1]; 313.15 K, x1 = 0.4917
  molar heat capacity at constant pressure: 241.9 ± 3.7 J/K/mol
[1]; 313.15 K, x1 = 0.5983
  molar heat capacity at constant pressure: 268.2 ± 4.2 J/K/mol
[1]; 313.15 K, x1 = 0.6899
  molar heat capacity at constant pressure: 290.1 ± 4.5 J/K/mol
[1]; 313.15 K, x1 = 0.7829
  molar heat capacity at constant pressure: 314.1 ± 4.9 J/K/mol
[1]; 313.15 K, x1 = 0.8784
  molar heat capacity at constant pressure: 338.7 ± 5.2 J/K/mol
[1]; 318.15 K, x1 = 0.0523
  molar heat capacity at constant pressure: 134.2 ± 2.1 J/K/mol
[1]; 318.15 K, x1 = 0.1
  molar heat capacity at constant pressure: 147.4 ± 2.3 J/K/mol
[1]; 318.15 K, x1 = 0.1959
  molar heat capacity at constant pressure: 171.1 ± 2.7 J/K/mol
[1]; 318.15 K, x1 = 0.2927
  molar heat capacity at constant pressure: 195 ± 3 J/K/mol
[1]; 318.15 K, x1 = 0.3819
  molar heat capacity at constant pressure: 216.9 ± 3.4 J/K/mol
[1]; 318.15 K, x1 = 0.4917
  molar heat capacity at constant pressure: 243.6 ± 3.8 J/K/mol
[1]; 318.15 K, x1 = 0.5983
  molar heat capacity at constant pressure: 270 ± 4.2 J/K/mol
[1]; 318.15 K, x1 = 0.6899
  molar heat capacity at constant pressure: 291.9 ± 4.5 J/K/mol
[1]; 318.15 K, x1 = 0.7829
  molar heat capacity at constant pressure: 316.1 ± 4.9 J/K/mol
[1]; 318.15 K, x1 = 0.8784
  molar heat capacity at constant pressure: 340.9 ± 5.3 J/K/mol
[2]; x1 = 0.1271
  excess molar enthalpy: 1.22 ± 0.098 kJ/mol
[2]; x1 = 0.2489
  excess molar enthalpy: 1.72 ± 0.14 kJ/mol
[2]; x1 = 0.3752
  excess molar enthalpy: 1.88 ± 0.15 kJ/mol
[2]; x1 = 0.5006
  excess molar enthalpy: 1.77 ± 0.14 kJ/mol
[2]; x1 = 0.6176
  excess molar enthalpy: 1.52 ± 0.12 kJ/mol
[2]; x1 = 0.7501
  excess molar enthalpy: 1.09 ± 0.087 kJ/mol
[2]; x1 = 0.869
  excess molar enthalpy: 0.599 ± 0.048 kJ/mol
